Reference: ChEMBL document CHEMBL1275440, “In vitro activity of telavancin against resistant gram-positive bacteria” (2008)
In brackets after ≈: the same amount, converted by molar mass. Activity calls are given as the source filed them. No cut-off for these calls is given here.

How the values were obtained:
Type in all cases: functional
[1] = system: Staphylococcus aureus; experiment: Antibacterial activity against methicillin resistant Staphylococcus aureus MED 2028 osteomyelitis isolate assessed as bacterial count at 4 ug/ml after 4 hrs by time-kill assay
[2] = system: Staphylococcus aureus; experiment: Antibacterial activity against methicillin resistant Staphylococcus aureus MED 2028 osteomyelitis isolate assessed as bacterial count at 2 ug/ml after 2 hrs by time-kill assay
[3] = system: Staphylococcus aureus; experiment: Antibacterial activity against methicillin resistant Staphylococcus aureus MED 2028 osteomyelitis isolate assessed as bacterial count at 1 ug/ml after 24 hrs by time-kill assay
[4] = system: Enterococcus faecalis; experiment: Antibacterial activity against Enterococcus faecalis ATCC 51575 by broth microdilution method
[5] = system: Staphylococcus aureus; experiment: Antibacterial activity against methicillin resistant Staphylococcus aureus MED 1805 bloodstream isolate by broth microdilution method
[6] = system: Staphylococcus aureus; experiment: Antibacterial activity against methicillin resistant Staphylococcus aureus MED 2028 osteomyelitis isolate by broth microdilution method
[7] = system: Staphylococcus aureus; experiment: Antibacterial activity against methicillin resistant Staphylococcus aureus clinical isolate assessed as susceptibility level by broth microdilution method
[8] = system: Enterococcus faecium; experiment: Antibacterial activity against vancomycin resistant Enterococcus faecium VanB clinical isolate by broth microdilution method
[9] = system: Enterococcus faecalis; experiment: Antibacterial activity against vancomycin resistant Enterococcus faecalis VanA clinical isolate by broth microdilution method
[10] = system: Streptococcus intermedius; experiment: Antibacterial activity against Streptococcus intermedius clinical isolate by broth microdilution method
[11] = system: Streptococcus pyogenes; experiment: Antibacterial activity against Streptococcus pyogenes group A clinical isolate by broth microdilution method
[12] = system: Streptococcus pneumoniae; experiment: Antibacterial activity against penicillin intermediate Streptococcus pneumoniae clinical isolate by broth microdilution method
[13] = system: Staphylococcus haemolyticus; experiment: Antibacterial activity against methicillin resistant coagulase-negative Staphylococcus haemolyticus clinical isolate by broth microdilution method
[14] = system: Staphylococcus auricularis; experiment: Antibacterial activity against methicillin resistant coagulase-negative Staphylococcus auricularis clinical isolate by broth microdilution method
[15] = system: Streptococcus pyogenes; experiment: Antibacterial activity against Streptococcus pyogenes MED 2040 assessed as bacterial count at […] after 2 hrs by time-kill assay
[16] = system: Streptococcus pyogenes; experiment: Antibacterial activity against Streptococcus pyogenes MED 2040 assessed as bacterial count at […] after 8 hrs by time-kill assay
[17] = system: Streptococcus pyogenes; experiment: Antibacterial activity against Streptococcus pyogenes MED 2040 assessed as bacterial count at 0.5 ug/ml after 2 hrs by time-kill assay
[18] = system: Streptococcus pyogenes; experiment: Antibacterial activity against Streptococcus pyogenes MED 2040 assessed as bacterial count at 0.5 ug/ml after 4 hrs by time-kill assay
[19] = system: Streptococcus pyogenes; experiment: Antibacterial activity against Streptococcus pyogenes MED 2040 assessed as bacterial count at 2 ug/ml after 2 hrs by time-kill assay
[20] = system: Streptococcus pyogenes; experiment: Antibacterial activity against Streptococcus pyogenes MED 2040 assessed as bacterial count at 2 ug/ml after 8 hrs by time-kill assay
[21] = system: Streptococcus pyogenes; experiment: Antibacterial activity against Streptococcus pyogenes MED 2040 assessed as bacterial count at 8 ug/ml after 2 hrs by time-kill assay
[22] = system: Enterococcus faecalis; experiment: Antibacterial activity against Enterococcus faecalis ATCC 51575 assessed as bacterial count at 2 ug/ml after 4 hrs by time-kill assay
[23] = system: Enterococcus faecalis; experiment: Antibacterial activity against Enterococcus faecalis ATCC 51575 assessed as bacterial count at 2 ug/ml after 24 hrs by time-kill assay
[24] = system: Enterococcus faecalis; experiment: Antibacterial activity against Enterococcus faecalis ATCC 51575 assessed as bacterial count at 4 ug/ml after 8 hrs by time-kill assay
[25] = system: Enterococcus faecalis; experiment: Antibacterial activity against Enterococcus faecalis ATCC 51575 assessed as bacterial count at 4 ug/ml after 24 hrs by time-kill assay
[26] = system: Enterococcus faecalis; experiment: Antibacterial activity against Enterococcus faecalis ATCC 51575 assessed as bacterial count at 8 ug/ml after 2 hrs by time-kill assay
[27] = system: Enterococcus faecalis; experiment: Antibacterial activity against Enterococcus faecalis ATCC 51575 assessed as bacterial count at 8 ug/ml after 24 hrs by time-kill assay
[28] = system: Streptococcus agalactiae; experiment: Antibacterial activity against Streptococcus agalactiae MED 2038 assessed as bacterial count at 8 ug/ml after 24 hrs by time-kill assay
[29] = system: Streptococcus agalactiae; experiment: Antibacterial activity against Streptococcus agalactiae MED 2038 assessed as bacterial count at 8 ug/ml after 4 hrs by time-kill assay
[30] = system: Streptococcus agalactiae; experiment: Antibacterial activity against Streptococcus agalactiae MED 2038 assessed as bacterial count at 8 ug/ml after 2 hrs by time-kill assay
[31] = system: Streptococcus agalactiae; experiment: Antibacterial activity against Streptococcus agalactiae MED 2038 assessed as bacterial count at 2 ug/ml after 2 hrs by time-kill assay
[32] = system: Streptococcus agalactiae; experiment: Antibacterial activity against Streptococcus agalactiae MED 2038 assessed as bacterial count at […] after 4 hrs by time-kill assay
[33] = system: Streptococcus pneumoniae; experiment: Antibacterial activity against multidrug resistant Streptococcus pneumoniae MED 1090 assessed as bacterial count at 8 ug/ml after 4 hrs by time-kill assay
[34] = system: Streptococcus pneumoniae; experiment: Antibacterial activity against multidrug resistant Streptococcus pneumoniae MED 1090 assessed as bacterial count at 2 ug/ml after 8 hrs by time-kill assay
[35] = system: Streptococcus pneumoniae; experiment: Antibacterial activity against multidrug resistant Streptococcus pneumoniae MED 1090 assessed as bacterial count at 0.03 ug/ml after 4 hrs by time-kill assay
[36] = system: Streptococcus pneumoniae; experiment: Antibacterial activity against multidrug resistant Streptococcus pneumoniae MED 1090 assessed as bacterial count at 0.03 ug/ml after 2 hrs by time-kill assay
[37] = system: Staphylococcus epidermidis; experiment: Antibacterial activity against methicillin resistant Staphylococcus epidermidis ATCC 35984 assessed as bacterial count at 16 ug/ml after 4 hrs by time-kill assay
[38] = system: Staphylococcus epidermidis; experiment: Antibacterial activity against methicillin resistant Staphylococcus epidermidis ATCC 35984 assessed as bacterial count at 8 ug/ml after 8 hrs by time-kill assay
[39] = system: Staphylococcus epidermidis; experiment: Antibacterial activity against methicillin resistant Staphylococcus epidermidis ATCC 35984 assessed as bacterial count at 8 ug/ml after 4 hrs by time-kill assay
[40] = system: Staphylococcus epidermidis; experiment: Antibacterial activity against methicillin resistant Staphylococcus epidermidis ATCC 35984 assessed as bacterial count at 2 ug/ml after 2 hrs by time-kill assay
[41] = system: Staphylococcus aureus; experiment: Antibacterial activity against methicillin resistant Staphylococcus aureus MED 1805 bloodstream isolate assessed as bacterial count at 4 ug/ml after 8 hrs by time-kill assay
[42] = system: Staphylococcus aureus; experiment: Antibacterial activity against methicillin resistant Staphylococcus aureus MED 1805 bloodstream isolate assessed as bacterial count at 2 ug/ml after 8 hrs by time-kill assay
[43] = system: Staphylococcus aureus; experiment: Antibacterial activity against methicillin resistant Staphylococcus aureus MED 1805 bloodstream isolate assessed as bacterial count at 1 ug/ml after 8 hrs by time-kill assay
[44] = system: Staphylococcus aureus; experiment: Antibacterial activity against methicillin resistant Staphylococcus aureus MED 2028 osteomyelitis isolate assessed as bacterial count at 8 ug/ml after 4 hrs by time-kill assay

`CCCCCCCCCCNCCN[C@@]1(C)C[C@H](O[C@H]2[C@H](Oc3c4cc5cc3Oc3ccc(cc3Cl)[C@@H](O)[C@@H](NC(=O)[C@@H](CC(C)C)NC)C(=O)N[C@@H](CC(N)=O)C(=O)N[C@H]5C(=O)N[C@H]3C(=O)N[C@H](C(=O)N[C@H](C(=O)O)c5cc(O)c(CNCP(=O)(O)O)c(O)c5-c5cc3ccc5O)[C@H](O)c3ccc(c(Cl)c3)O4)O[C@H](CO)[C@@H](O)[C@@H]2O)O[C@@H](C)[C@H]1O` [TELAVANCIN] was tested, and the log10CFU/ml [1] was 1.7, the log10CFU/ml [2] was 0.6 and the log10CFU/ml [3] was 2.1. The MIC [4] was 1 µg/mL (≈ 0.57 µM), the MIC [5] was 0.5 µg/mL (≈ 0.285 µM) and the MIC [6] was 0.5 µg/mL (≈ 0.285 µM). It also gave an Activity [7] of 100%, an MIC50 [8] of 0.5 µg/mL (≈ 0.285 µM) and an MIC90 [8] of 2 µg/mL (≈ 1.14 µM). For the same compound, the MIC50 [9] was 8 µg/mL (≈ 4.56 µM), the MIC90 [9] was 16 µg/mL (≈ 9.11 µM) and the MIC [10] was 0.015 µg/mL (≈ 0.00854 µM). The MIC50 [10] was “inactive”, the MIC90 [10] was “inactive” and the MIC50 [11] was 0.03 µg/mL (≈ 0.0171 µM). It also gave an MIC90 [11] of 0.06 µg/mL (≈ 0.0342 µM), an MIC50 [12] of 0.015 µg/mL (≈ 0.00854 µM) and an MIC90 [12] of 0.06 µg/mL (≈ 0.0342 µM). The MIC50 [13] was 0.5 µg/mL (≈ 0.285 µM), the MIC90 [13] was 1 µg/mL (≈ 0.57 µM) and the MIC50 [14] was 0.5 µg/mL (≈ 0.285 µM). For the same compound, the MIC90 [14] was 1 µg/mL (≈ 0.57 µM), the log10CFU/ml [15] was 0.7 and the log10CFU/ml [16] was 2.5. The log10CFU/ml [17] was 0.9, the log10CFU/ml [18] was 1.6 and the log10CFU/ml [19] was 1.8. The log10CFU/ml [20] was 3.1, the log10CFU/ml [21] was 0.6 and the log10CFU/ml [22] was 0.5. For the same compound, the log10CFU/ml [23] was 0.8, the log10CFU/ml [24] was 0.7 and the log10CFU/ml [25] was 1.2. It also gave a log10CFU/ml [26] of 0.2, a log10CFU/ml [27] of 1 and a log10CFU/ml [28] of 3.7. The log10CFU/ml [29] was 0.9, the log10CFU/ml [30] was 1.1 and the log10CFU/ml [31] was 0.8. The log10CFU/ml [32] was 0.8, the log10CFU/ml [33] was 1.7 and the log10CFU/ml [34] was 3.4. It also gave a log10CFU/ml [35] of 2.7, a log10CFU/ml [36] of 1.1 and a log10CFU/ml [37] of 3.2. It also gave a log10CFU/ml [38] of 3.3, a log10CFU/ml [39] of 2.7 and a log10CFU/ml [40] of 0.2. The log10CFU/ml [41] was 3, the log10CFU/ml [42] was 2.7 and the log10CFU/ml [43] was 3.2. It also gave a log10CFU/ml [44] of 2.2.
